The test system of assay [1] is neural cell adhesion to laminin. The following applies: Hall et al. 1995; cited from earlier work.
The conditions of assay [2]: Hall et al. 1995; cited from earlier work.
Assay [3] can be described thus: L2 glycolipid binding to immobilized CD4 peptide. The following applies: L2 glycolipid 3 μg/ml, detected with L2-412. As for the experimental part: The ability of isolated L2/HNK-1 glycolipid to bind to immobilized CD-4 peptide was tested. CD-4 peptide was immobilized in water at different concentrations and dried onto microtiter plates overnight. The microtiter plates were blocked with 1% BSA in PBS, incubated with 3 ug/ml L2 glycolipid for 1.5 hours at room temperature, and washed with PBS. Bound L2 glycolipid was detected with L2-412 antibody followed by HRP-linked secondary antibody.
It was determined whether L2 glycolipid could bind substrate coated CD-4 peptide. CD4 peptide was coated onto microtiter plates by coating with serial dilutions of CD4 peptide (1 mg/ml 1:1 in EtOH) and allowed to dry overnight. The wells were incubated with L2-glycolipid (3 μg/ml) for 1 hour at RT, L2-412 antibody (1: 1000) then added and further incubated for 3 hours at RT. Goat anti-rat antibody was then added, incubated 2 hours at RT and detected by HRP-linked secondary antibody.
The CD-4 peptide was conjugated to Ovalbumin (by similar methods as for BSA conjugation described in Materials and Methods) to generate CD4-OV, and binding experiments were performed to assess binding of conjugated peptide to laminin and L2 glycolipid. In particular, it was necessary to confirm that CD4 peptide and laminin compete directly in binding to L2/HNK-1 glycolipids. […]

For a further assay, the target named is T1, laminin (Mus musculus, UniProt P19137).
T1 construct: purchased Gibco/BRL
The assay can be described thus: Competition of L2 glycolipid binding to immobilized laminin by CD4 peptide. As to conditions: L2 glycolipids 3 μg/ml, varying CD-4 peptide. The procedure:
The CD-4 peptide was conjugated to Ovalbumin (by similar methods as for BSA conjugation described in Materials and Methods) to generate CD4-OV, and binding experiments were performed to assess binding of conjugated peptide to laminin and L2 glycolipid. In particular, it was necessary to confirm that CD4 peptide and laminin compete directly in binding to L2/HNK-1 glycolipids. In this set of experiments, microtiter plates were coated with serial dilutions of either CD4-OV or laminin (each 10 μg/ml 1:1 in EtOH, allowed to dry overnight). The coated plates were then incubated in the following combinations: (a) CD4-OV coated plates with L2 glycolipid (3 μg/ml, 1 hr, RT); (b) laminin coated plates with L2 glycolipid (3 μg/ml. 1 hr, RT); and (c) laminin coated plates with CD-4-OV (1 μg/ml) and L2 glycolipids (3 μg/ml) for 1 hr at RT. Similar to the previous set of experiments L2-412 antibody was added (1:1000, 3 hr, RT), followed by HRP-conjugated-goat anti-rat antibody (2 hrs, RT) and detection by HRP-linked secondary antibody. The results (not shown) confirmed that CD4 peptide and laminin compete directly in binding to L2/HNK-1 glycolipids.
To further assess whether the CD-4 peptide could inhibit L2 glycolipid binding to laminin, a fixed amount of L2 glycolipid was incubated with immobilized laminin, in the presence of varying concentrations of CD-4 peptide. […]

This is an account of results in US20030100508A1, “Carbohydrate epitope mimic compounds and uses thereof” (priority 1999, published 2003).

As for KGVSSRSYVGCIKNLEISRST, in assay [1], the “inhibition of HNK-1-mediated neural cell adhesion to laminin” value was “inhibited HNK-1-mediated neural cell adhesion to laminin”. Also, the “binding to the L2/HNK-1 carbohydrate” value in assay [2] is recorded as “bound to the L2/HNK-1 carbohydrate in a concentration-dependent manner”.

As to RASSSKSWITFDLKNKEVSVK [CD4 peptide], the “L2 glycolipid binding to immobilized CD4 peptide (words)” value in assay [3] was “binds to CD4 peptide in a concentration-dependent manner”; in assay [3] (listed as CD-4 peptide), “binds L2 glycolipid in a concentration dependent manner”. In addition, in the assay with laminin, the “competition of L2 glycolipid binding to immobilized laminin” value is recorded as “competes with L2 glycolipid binding to immobilized laminin in a concentration-dependent manner”.
